Laboratory results published in ChEMBL document CHEMBL3627608, “Crystal structures of human RIP2 kinase catalytic domain complexed with ATP-competitive inhibitors: Foundations for understanding inhibitor selectivity” (Bioorg Med Chem, 2015).
pIC50: −log10 of the molar value.

Columns and labels:
[1] = molecular target: T1, Ephrin type-B receptor 1 (Homo sapiens) (UniProt P54762); assay: Inhibition of EPHB1 (unknown origin) at 10 uM after 120 mins P33 radiolabeled kinase activity assay
T1 sequence (whole entry): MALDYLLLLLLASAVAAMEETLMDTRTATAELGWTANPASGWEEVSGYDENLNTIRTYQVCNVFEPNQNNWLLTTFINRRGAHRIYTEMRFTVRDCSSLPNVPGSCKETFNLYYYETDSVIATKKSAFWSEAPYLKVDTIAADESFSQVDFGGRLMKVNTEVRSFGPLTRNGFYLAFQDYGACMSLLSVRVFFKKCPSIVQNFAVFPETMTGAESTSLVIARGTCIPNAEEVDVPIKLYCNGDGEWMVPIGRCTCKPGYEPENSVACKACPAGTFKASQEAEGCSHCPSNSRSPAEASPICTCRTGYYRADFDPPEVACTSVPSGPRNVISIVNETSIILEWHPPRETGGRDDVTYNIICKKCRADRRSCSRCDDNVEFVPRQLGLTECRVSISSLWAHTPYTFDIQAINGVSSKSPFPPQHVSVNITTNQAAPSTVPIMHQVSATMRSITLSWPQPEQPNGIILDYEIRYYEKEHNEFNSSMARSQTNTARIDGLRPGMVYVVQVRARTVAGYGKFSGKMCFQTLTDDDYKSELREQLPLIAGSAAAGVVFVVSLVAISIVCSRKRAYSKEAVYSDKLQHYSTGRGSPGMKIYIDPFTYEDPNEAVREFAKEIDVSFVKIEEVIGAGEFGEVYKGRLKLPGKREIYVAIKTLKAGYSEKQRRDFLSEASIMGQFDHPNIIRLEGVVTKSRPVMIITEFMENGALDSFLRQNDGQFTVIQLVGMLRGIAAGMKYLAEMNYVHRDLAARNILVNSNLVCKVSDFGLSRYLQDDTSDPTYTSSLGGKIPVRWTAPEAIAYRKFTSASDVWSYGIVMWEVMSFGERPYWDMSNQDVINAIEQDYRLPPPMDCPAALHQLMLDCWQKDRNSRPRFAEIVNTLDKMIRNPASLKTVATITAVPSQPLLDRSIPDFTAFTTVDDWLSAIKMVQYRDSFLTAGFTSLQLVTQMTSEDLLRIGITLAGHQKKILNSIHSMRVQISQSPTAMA

[2] = molecular target: Platelet-derived growth factor receptor beta (Homo sapiens) (UniProt P09619); assay: Inhibition of PDGFRbeta (unknown origin) at 10 uM after 120 mins P33 radiolabeled kinase activity assay
[3] = molecular target: T2, Protein kinase C epsilon type (Homo sapiens) (UniProt Q02156); assay: Inhibition of PKCepsilon (unknown origin) at 10 uM after 120 mins P33 radiolabeled kinase activity assay
T2 sequence (whole entry): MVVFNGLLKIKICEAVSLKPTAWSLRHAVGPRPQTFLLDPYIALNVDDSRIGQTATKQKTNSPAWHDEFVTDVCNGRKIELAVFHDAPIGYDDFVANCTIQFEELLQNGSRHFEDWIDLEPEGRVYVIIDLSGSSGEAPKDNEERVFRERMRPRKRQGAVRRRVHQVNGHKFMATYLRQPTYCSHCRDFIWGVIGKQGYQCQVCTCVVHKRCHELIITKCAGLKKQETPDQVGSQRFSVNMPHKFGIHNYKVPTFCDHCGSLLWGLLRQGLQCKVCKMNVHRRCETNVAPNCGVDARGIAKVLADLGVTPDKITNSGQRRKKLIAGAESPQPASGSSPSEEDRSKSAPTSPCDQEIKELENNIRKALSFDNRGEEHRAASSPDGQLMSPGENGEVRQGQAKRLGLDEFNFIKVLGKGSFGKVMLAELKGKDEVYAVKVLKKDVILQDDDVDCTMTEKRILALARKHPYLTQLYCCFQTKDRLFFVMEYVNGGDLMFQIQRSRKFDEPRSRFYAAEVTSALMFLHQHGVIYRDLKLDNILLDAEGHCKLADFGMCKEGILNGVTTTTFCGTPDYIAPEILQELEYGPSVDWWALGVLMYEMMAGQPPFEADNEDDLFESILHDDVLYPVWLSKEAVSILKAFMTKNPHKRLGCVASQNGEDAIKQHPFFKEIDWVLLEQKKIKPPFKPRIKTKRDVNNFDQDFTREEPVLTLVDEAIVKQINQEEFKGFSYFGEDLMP

[4] = molecular target: T3, Inhibitor of nuclear factor kappa-B kinase subunit epsilon (Homo sapiens) (UniProt Q14164); assay: Inhibition of IKKepsilon (unknown origin) at 10 uM after 120 mins P33 radiolabeled kinase activity assay
T3 sequence (whole entry): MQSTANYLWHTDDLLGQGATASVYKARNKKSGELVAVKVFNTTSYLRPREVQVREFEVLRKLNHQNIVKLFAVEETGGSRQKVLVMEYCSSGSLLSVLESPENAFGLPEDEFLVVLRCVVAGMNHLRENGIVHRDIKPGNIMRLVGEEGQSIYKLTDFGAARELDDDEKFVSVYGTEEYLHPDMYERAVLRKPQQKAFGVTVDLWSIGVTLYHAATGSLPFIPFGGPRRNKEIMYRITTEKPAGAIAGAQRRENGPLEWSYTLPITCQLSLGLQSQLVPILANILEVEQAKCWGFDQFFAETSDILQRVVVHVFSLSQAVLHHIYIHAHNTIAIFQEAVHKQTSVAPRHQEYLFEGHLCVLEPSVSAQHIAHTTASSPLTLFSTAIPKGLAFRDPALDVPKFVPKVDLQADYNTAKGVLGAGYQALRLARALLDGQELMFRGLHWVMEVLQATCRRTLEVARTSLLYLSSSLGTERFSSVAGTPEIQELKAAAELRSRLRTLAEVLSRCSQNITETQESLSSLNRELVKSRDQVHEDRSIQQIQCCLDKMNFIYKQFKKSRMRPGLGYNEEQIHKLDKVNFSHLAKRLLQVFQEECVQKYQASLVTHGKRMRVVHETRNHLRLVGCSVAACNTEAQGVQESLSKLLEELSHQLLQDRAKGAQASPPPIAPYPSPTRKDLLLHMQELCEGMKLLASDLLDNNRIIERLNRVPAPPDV

[5] = molecular target: Tyrosine-protein kinase JAK2 (Homo sapiens) (UniProt O60674); assay: Inhibition of JAK2 (unknown origin) at 10 uM after 120 mins P33 radiolabeled kinase activity assay
[6] = molecular target: Tyrosine-protein kinase ABL1 (Homo sapiens) (UniProt P00519); assay: Inhibition of ABL1 (unknown origin) at 10 uM after 120 mins P33 radiolabeled kinase activity assay
[7] = molecular target: T4, Receptor-interacting serine/threonine-protein kinase 2 (Homo sapiens, UniProt O43353); assay: Inhibition of full-length FLAG-6His-TEV tagged human RIP2 expressed in Sf9 cells assessed as reduction in autophosphorylation pre-incubated for 30 mins followed by incubation with ATP for 2 hrs by ADP-Glo assay
[8] = molecular target: T4, Receptor-interacting serine/threonine-protein kinase 2; assay: Inhibition of full-length FLAG-6His-TEV tagged human RIP2 expressed in Sf9 cells assessed as dissociation rate by fluorescent polarization assay
[9] = molecular target: Cyclin-dependent kinase 5/CDK5 activator 1 (Homo sapiens) (UniProt Q00535+Q15078); assay: Inhibition of CDK5/p35 (unknown origin) at 10 uM after 120 mins P33 radiolabeled kinase activity assay; type: protein-complex assay
Chain of Cyclin-dependent kinase 5/CDK5 activator 1 (Homo sapiens) (Q00535 whole entry): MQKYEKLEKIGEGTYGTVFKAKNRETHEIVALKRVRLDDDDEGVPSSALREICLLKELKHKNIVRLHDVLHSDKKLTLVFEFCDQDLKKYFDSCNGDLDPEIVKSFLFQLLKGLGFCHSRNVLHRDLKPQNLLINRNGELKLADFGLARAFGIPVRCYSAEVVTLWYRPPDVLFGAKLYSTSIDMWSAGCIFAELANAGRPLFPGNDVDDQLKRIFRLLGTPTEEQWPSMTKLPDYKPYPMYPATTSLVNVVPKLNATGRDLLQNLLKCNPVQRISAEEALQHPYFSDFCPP
Chain of Cyclin-dependent kinase 5/CDK5 activator 1 (Homo sapiens) (Q15078 99-307 partner limits assumed): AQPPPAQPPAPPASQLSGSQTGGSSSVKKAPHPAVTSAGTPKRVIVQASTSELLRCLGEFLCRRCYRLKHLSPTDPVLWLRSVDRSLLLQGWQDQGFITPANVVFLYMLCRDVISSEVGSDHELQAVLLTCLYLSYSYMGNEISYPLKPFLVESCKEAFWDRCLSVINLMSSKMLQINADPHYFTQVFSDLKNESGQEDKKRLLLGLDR

T4 sequence (O43353 whole entry): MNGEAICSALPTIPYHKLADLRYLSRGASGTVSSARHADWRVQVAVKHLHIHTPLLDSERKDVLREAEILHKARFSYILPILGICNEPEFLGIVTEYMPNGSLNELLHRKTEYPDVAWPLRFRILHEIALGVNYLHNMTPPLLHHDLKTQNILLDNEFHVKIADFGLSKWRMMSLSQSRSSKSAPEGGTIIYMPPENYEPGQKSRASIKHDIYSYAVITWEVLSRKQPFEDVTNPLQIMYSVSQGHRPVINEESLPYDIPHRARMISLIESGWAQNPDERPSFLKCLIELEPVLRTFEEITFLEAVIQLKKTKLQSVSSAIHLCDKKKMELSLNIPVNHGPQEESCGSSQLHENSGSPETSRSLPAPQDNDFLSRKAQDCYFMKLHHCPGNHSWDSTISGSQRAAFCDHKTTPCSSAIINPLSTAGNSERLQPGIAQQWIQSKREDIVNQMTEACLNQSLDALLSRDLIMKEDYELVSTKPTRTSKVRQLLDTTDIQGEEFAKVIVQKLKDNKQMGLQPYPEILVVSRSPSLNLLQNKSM
Chain of Tyrosine-protein kinase ABL1 (Homo sapiens) (P00519 whole entry): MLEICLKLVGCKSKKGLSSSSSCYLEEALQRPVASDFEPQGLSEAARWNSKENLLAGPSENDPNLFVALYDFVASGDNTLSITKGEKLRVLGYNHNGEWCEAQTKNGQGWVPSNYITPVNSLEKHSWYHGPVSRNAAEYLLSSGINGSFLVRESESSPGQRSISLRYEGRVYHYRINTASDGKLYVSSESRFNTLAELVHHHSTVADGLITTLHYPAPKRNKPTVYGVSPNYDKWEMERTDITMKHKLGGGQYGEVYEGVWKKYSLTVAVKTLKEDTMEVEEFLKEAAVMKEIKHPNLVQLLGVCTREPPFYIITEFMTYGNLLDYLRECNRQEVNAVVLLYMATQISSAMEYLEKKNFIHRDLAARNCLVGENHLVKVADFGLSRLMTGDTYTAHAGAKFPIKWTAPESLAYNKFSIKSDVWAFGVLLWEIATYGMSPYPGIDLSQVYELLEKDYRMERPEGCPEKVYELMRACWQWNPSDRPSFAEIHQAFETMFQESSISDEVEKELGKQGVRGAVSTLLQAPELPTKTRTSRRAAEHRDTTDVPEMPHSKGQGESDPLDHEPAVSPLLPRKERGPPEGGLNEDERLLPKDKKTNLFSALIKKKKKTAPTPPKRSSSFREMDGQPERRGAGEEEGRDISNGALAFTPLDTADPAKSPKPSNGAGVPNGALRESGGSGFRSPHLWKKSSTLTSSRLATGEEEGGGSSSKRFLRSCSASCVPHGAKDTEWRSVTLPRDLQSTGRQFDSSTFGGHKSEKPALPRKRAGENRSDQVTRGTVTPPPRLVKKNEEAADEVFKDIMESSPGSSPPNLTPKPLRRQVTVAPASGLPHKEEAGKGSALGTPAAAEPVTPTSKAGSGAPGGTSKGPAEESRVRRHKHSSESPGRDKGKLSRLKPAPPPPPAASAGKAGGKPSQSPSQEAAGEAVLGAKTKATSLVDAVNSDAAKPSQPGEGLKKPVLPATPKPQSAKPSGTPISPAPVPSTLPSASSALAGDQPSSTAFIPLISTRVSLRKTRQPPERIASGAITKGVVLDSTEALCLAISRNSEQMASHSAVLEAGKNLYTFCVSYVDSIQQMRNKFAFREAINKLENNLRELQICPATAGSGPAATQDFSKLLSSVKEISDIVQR
Chain of Tyrosine-protein kinase JAK2 (Homo sapiens) (O60674 whole entry): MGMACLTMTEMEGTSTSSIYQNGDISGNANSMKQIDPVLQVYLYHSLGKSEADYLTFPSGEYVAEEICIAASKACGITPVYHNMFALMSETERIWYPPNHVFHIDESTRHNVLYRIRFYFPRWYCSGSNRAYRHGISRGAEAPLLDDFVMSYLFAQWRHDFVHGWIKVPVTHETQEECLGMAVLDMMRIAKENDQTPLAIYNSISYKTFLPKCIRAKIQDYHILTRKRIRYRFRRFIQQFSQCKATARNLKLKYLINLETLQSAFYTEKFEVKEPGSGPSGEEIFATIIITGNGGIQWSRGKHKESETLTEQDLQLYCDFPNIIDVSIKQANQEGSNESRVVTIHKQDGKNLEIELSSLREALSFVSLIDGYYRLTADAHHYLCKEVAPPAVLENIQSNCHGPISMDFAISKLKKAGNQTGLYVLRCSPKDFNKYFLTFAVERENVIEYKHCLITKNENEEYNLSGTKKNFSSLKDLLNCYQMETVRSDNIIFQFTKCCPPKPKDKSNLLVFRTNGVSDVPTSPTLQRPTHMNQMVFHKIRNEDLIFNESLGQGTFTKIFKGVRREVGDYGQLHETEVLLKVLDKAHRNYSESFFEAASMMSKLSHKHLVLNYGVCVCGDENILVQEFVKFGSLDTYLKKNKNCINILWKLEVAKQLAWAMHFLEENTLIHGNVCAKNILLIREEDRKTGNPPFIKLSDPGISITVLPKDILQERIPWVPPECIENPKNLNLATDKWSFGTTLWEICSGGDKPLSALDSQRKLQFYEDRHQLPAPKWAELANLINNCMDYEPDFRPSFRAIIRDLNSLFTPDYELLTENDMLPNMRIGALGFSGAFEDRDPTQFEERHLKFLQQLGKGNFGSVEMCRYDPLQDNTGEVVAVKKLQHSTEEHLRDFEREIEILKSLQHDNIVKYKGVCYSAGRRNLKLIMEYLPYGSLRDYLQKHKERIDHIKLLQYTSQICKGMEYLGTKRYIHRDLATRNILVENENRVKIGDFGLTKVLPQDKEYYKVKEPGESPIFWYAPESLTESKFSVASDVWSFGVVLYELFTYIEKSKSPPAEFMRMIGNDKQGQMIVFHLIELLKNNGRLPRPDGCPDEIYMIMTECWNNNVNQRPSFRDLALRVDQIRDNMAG
Chain of Platelet-derived growth factor receptor beta (Homo sapiens) (P09619 whole entry): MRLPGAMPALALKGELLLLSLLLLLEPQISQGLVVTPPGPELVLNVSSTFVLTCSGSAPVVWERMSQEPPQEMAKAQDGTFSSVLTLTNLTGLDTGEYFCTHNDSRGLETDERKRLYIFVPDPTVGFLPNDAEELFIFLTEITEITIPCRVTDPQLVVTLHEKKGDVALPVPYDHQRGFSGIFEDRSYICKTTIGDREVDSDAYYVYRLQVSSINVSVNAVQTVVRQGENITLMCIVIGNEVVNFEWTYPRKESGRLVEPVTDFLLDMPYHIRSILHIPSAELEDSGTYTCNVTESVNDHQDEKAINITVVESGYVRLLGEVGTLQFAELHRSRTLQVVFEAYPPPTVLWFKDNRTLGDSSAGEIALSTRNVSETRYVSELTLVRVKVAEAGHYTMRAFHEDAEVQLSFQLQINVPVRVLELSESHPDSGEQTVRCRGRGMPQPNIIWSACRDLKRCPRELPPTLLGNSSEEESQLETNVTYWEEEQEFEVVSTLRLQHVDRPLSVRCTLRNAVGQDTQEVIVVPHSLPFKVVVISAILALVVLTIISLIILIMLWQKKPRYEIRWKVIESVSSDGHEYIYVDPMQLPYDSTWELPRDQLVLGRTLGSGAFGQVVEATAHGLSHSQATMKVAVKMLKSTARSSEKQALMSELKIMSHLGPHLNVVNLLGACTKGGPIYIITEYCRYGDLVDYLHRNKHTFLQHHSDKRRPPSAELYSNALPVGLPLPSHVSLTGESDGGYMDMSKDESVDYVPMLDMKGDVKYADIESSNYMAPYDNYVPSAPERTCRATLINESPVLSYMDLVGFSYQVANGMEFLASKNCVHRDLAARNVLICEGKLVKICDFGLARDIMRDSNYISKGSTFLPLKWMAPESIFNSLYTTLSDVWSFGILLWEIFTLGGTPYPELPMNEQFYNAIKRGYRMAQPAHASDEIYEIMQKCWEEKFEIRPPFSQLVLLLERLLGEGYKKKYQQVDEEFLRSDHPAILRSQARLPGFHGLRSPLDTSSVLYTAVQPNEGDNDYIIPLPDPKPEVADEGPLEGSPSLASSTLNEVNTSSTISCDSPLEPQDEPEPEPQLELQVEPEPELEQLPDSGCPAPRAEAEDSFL

SMILES	inhibition [1] [%]	inhibition [2] [%]	inhibition [3] [%]	inhibition [4] [%]	inhibition [5] [%]	inhibition [6] [%]	pIC50 [7]	K [8] [s⁻¹]	inhibition [9] [%]
COCCNC(=O)c1ccc2c(c1)nc(-c1cnc(-c3ccc(Cl)cc3)[nH]1)n2CCOC	12.3	11.1	1.13	-0.19	-2.57	65.6	7.92	0.12	0.14
CS(=O)(=O)c1cccc(Nc2nccc(-c3sc(N4CCOCC4)nc3-c3cccc(NS(=O)(=O)c4c(F)cccc4F)c3)n2)c1	78.7	91	-0.59	67.7	12	98.1	8.20	0.000147	94.7
CC(C)(C)c1cc(NC(=O)Nc2ccc(Oc3ccncc3)cc2)no1	93.2	99.5	0.69	1.8	-0.98	88.4	7.20	0.000135	57.3
